In patent publication US7534914B2, “Substituted methyl aryl or heteroaryl amide compounds” (ReQualia Pharma Inc., priority 2004, dated 2009) one finds IC50 data, which are given here for 27 compounds.

By IC50 is commonly meant the concentration at which inhibition is half-maximal. A high value points to lower potency.

For this experiment, the target named is T1, human EP4 receptors (Homo sapiens, UniProt P35408).
T1 construct: expressed in transfected cells
T1 sequence (P35408 whole entry): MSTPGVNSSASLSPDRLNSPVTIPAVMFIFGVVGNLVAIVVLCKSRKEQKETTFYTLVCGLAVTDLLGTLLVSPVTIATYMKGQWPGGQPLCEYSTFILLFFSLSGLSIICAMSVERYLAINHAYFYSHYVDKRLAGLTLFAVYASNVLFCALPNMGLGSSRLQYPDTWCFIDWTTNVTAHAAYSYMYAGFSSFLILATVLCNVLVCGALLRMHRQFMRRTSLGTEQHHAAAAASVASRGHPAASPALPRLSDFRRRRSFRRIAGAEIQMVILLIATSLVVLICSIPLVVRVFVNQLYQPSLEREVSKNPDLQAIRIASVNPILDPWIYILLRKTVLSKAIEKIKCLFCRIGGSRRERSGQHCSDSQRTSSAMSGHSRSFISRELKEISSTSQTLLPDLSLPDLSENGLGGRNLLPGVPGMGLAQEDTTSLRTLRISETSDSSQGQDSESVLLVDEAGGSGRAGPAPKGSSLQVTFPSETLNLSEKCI
In words: cAMP assay in human EP4 transfectant. As to conditions: HEK293 cells expressing human EP4 receptors, 1 nM PGE2, 0.2 mM IBMX, 37° C. for 10 min. It counts as cell-based. Here is the method:
cAMP Assay in Human EP4 Transfectant
HEK293 cells expressing human EP4 receptors (hEP4 cells) are maintained in DMEM containing 10% FBS and 500 μg/ml geneticin. For harvesting hEP4 cells, culture medium is aspirated and cells in 75 cm^2 flask are washed with 10 ml of phosphate buffered saline (PBS). Another 10 ml of PBS is added to the cells and incubated for 20 min at room temperature. Human EP4 cells are harvested by pipetting and centrifuged at 300×g for 4 min. Cells are resuspended in DMEM without neutral red at a density of 7×10^5 cells/ml containing 0.2 mM IBMX (PDE inhibitor), 1 nM PGE2 and test compounds in PCR-tubes, and incubated at 37° C. for 10 min. The reaction is stopped by heating at 100° C. for 10 min with thermal cycler. Concentration of cAMP in reaction mixtures is determined with SPA cAMP Kit (Amersham) or cAMP Screen™ (Applied Biosystems) according to the manufacture's instruction. • Reference: Eur. J. Pharmacol. 340 (1997) 227-241. In Vivo Assays Carrageenan Induced Mechanical Hyperalgesia in Rats: […]
`C[C@H](NC(=O)c1cc(F)cnc1COc1ccc(Cl)cc1)c1ccc(C(=O)O)cc1` [EXAMPLE 21, 4-{(1S)-1-[({2-[(4-chlorophenoxy)methyl]-5-fluoropyridin-3-yl}carbonyl)amino]ethyl}benzoic Acid] showed an IC50 of 0.048 µM.

Regarding `C[C@H](NC(=O)c1cc(Cl)ccc1COc1cncc(F)c1)c1ccc(C(=O)O)cc1` [EXAMPLE 14, 4-{(1S)-1-[(5-chloro-2-{[(5-fluoropyridin-3-yl)oxy]methyl}benzoyl)amino]ethyl}benzoic Acid], the midpoint of inhibition, the IC50, lay at 0.38 µM.

In turn, `C[C@H](NC(=O)c1cc(Cl)ccc1CN(C)c1ccc(Cl)cn1)c1ccc(C(=O)O)cc1` [EXAMPLE 22, 4-{(1S)-1-[(5-chloro-2-{[(5-chloropyridin-2-yl)(methyl)amino]methyl}benzoyl)amino]ethyl}benzoic Acid] displayed an IC50 of 0.068 µM.

Regarding `C[C@H](NC(=O)c1cc(Cl)cnc1COc1ccc(F)cc1)c1ccc(C(=O)O)cc1` [EXAMPLE 27, 4-{(1S)-1-[({5-chloro-2-[(4-fluorophenoxy)methyl]pyridin-3-yl}carbonyl)amino]ethyl}benzoic Acid], the IC50 amounted to 0.091 µM.

`C[C@H](NC(=O)c1cc(Cl)ccc1COc1cc(F)ccc1F)c1ccc(C(=O)O)cc1` [EXAMPLE 9, 4-[(1S)-1-({5-chloro-2-[(2,5-difluorophenoxy)methyl]benzoyl}amino)ethyl]benzoic Acid]: the half-maximal inhibitory concentration (IC50) was 0.041 µM.

In turn, `CC(C)COCc1ccc(Cl)cc1C(=O)N[C@@H](C)c1ccc(C(=O)O)cc1` [EXAMPLE 17, 4-((1S)-1-{[5-chloro-2-(isobutoxymethyl)benzoyl]amino}ethyl)benzoic Acid] registered an IC50 of 0.18 µM.

Regarding `C[C@H](NC(=O)c1cc(Cl)cnc1COc1cccc(F)c1)c1ccc(C(=O)O)cc1` [EXAMPLE 26, 4-{(1S)-1-[({5-chloro-2-[(3-fluorophenoxy)methyl]pyridin-3-yl}carbonyl)amino]ethyl}benzoic Acid], the IC50 was 0.056 µM.

`CNC(=O)c1cccc(OCc2ccc(Cl)cc2C(=O)N[C@@H](C)c2ccc(C(=O)O)cc2)c1` [EXAMPLE 19, 4-((1S)-1-{[5-chloro-2-({3-[(methylamino)carbonyl]phenoxy}methyl)benzoyl]amino}ethyl)benzoic Acid] returned an IC50 of 0.22 µM.

As for `C[C@H](NC(=O)c1cc(Cl)ccc1COc1ccc(F)cc1F)c1ccc(C(=O)O)cc1` [EXAMPLE 8, 4-[(1S)-1-({5-chloro-2-[(2,4-difluorophenoxy)methyl]benzoyl}amino)ethyl]benzoic Acid], half-maximal inhibition (IC50) was put at 0.017 µM.

Turning to `C[C@H](NC(=O)c1cc(Cl)ccc1COc1cncc(Cl)c1)c1ccc(C(=O)O)cc1` [EXAMPLE 15, 4-{(1S)-1-[(5-chloro-2-{[(5-chloropyridin-3-yl)oxy]methyl}benzoyl)amino]ethyl}benzoic Acid], the IC50 came to 0.16 µM.

Compound `C[C@H](NC(=O)c1cc(Cl)ccc1COc1cccc(F)c1F)c1ccc(C(=O)O)cc1` [EXAMPLE 7, 4-[(1S)-1-({5-chloro-2-[(2,3-difluorophenoxy)methyl]benzoyl}amino)ethyl]benzoic Acid] registered an IC50 of 0.015 µM.

For `C[C@H](NC(=O)c1cc(Cl)ccc1COc1ccccc1Cl)c1ccc(C(=O)O)cc1` [EXAMPLE 1, 4-[(1S)-1-({5-chloro-2-[(2-chlorophenoxy)methyl]benzoyl}amino)ethyl]benzoic Acid], the IC50 came to 0.019 µM.

In turn, `C[C@H](NC(=O)c1cc(Cl)ccc1COCC(C)(C)C)c1ccc(C(=O)O)cc1` [EXAMPLE 24, 4-{(1S)-1-({5-chloro-2-[(2,2-dimethylpropoxy)methyl]benzoyl}amino)ethyl}benzoic Acid] had an IC50 of 0.12 µM.

The compound `C[C@H](NC(=O)c1cc(Cl)ccc1COc1ccccc1F)c1ccc(C(=O)O)cc1` [EXAMPLE 6, 4-[(1S)-1-({5-chloro-2-[(2-fluorophenoxy)methyl]benzoyl}amino)ethyl]benzoic Acid] returned an IC50 of 0.03 µM.

Consider `C[C@H](NC(=O)c1cc(Cl)ccc1COC1CCCC1)c1ccc(C(=O)O)cc1` [EXAMPLE 16, 4-[(1S)-1-({5-chloro-2-[(cyclopentyloxy)methyl]benzoyl}amino)ethyl]benzoic Acid], for which inhibition was half-maximal at 0.47 µM (IC50).

In the case of `Cc1ccc(OCc2ccc(Cl)cc2C(=O)N[C@@H](C)c2ccc(C(=O)O)cc2)cc1` [EXAMPLE 13, 4-[(1S)-1-({5-chloro-2-[(4-methylphenoxy)methyl]benzoyl}amino)ethyl]benzoic Acid], inhibition was half-maximal at 0.0083 µM (IC50).

`C[C@H](NC(=O)c1cc(Cl)ccc1COCC1CCCCC1)c1ccc(C(=O)O)cc1` [EXAMPLE 23, 4-{(1S)-1-({5-chloro-2-[(cyclohexylmethoxy)methyl]benzoyl}amino)ethyl}benzoic Acid] came in with an IC50 of 0.01 µM.

Consider `C[C@H](NC(=O)c1cc(Cl)ccc1COc1c(F)cccc1F)c1ccc(C(=O)O)cc1` [EXAMPLE 10, 4-[(1S)-1-({5-chloro-2-[(2,6-difluorophenoxy)methyl]benzoyl}amino)ethyl]benzoic Acid], for which the half-inhibitory concentration (IC50) stood at 0.024 µM.

Compound `C[C@H](NC(=O)c1cc(Cl)ccc1COc1ccc(Cl)cc1)c1ccc(C(=O)O)cc1` [EXAMPLE 3, 4-[(1S)-1-({5-chloro-2-[(4-chlorophenoxy)methyl]benzoyl}amino)ethyl]benzoic Acid] yielded an IC50 of 0.0075 µM.

`C[C@H](NC(=O)c1cc(Cl)cnc1COc1ccc(Cl)cc1)c1ccc(C(=O)O)cc1` [EXAMPLE 18, 4-{(1S)-1-[({5-chloro-2-[(4-chlorophenoxy)methyl]pyridin-3-yl}carbonyl)amino]ethyl}benzoic Acid] returned an IC50 of 0.022 µM.

Turning to `C[C@H](NC(=O)c1cc(Cl)ccc1COc1cc(F)cc(F)c1)c1ccc(C(=O)O)cc1` [EXAMPLE 12, 4-[(1S)-1-({5-chloro-2-[(3,5-difluorophenoxy)methyl]benzoyl}amino)ethyl]benzoic Acid], the IC50 worked out at 0.022 µM.

`C[C@H](NC(=O)c1cc(Cl)ccc1COc1cccc(Cl)c1)c1ccc(C(=O)O)cc1` [EXAMPLE 2, 4-[(1S)-1-({5-chloro-2-[(3-chlorophenoxy)methyl]benzoyl}amino)ethyl]benzoic Acid] displayed an IC50 of 0.011 µM.

In turn, `C[C@H](NC(=O)c1cc(Cl)ccc1CN(C)c1ccc(F)cn1)c1ccc(C(=O)O)cc1` [EXAMPLE 25, 4-{(1S)-1-[(5-chloro-2-{[(5-fuluoropyridin-2-yl)(methyl)amino]methyl}benzoyl)amino]ethyl}benzoic Acid] gave a concentration for half-maximal inhibition (IC50) of 0.23 µM.

For the compound `C[C@H](NC(=O)c1cc(Cl)ccc1COc1cccc(F)c1)c1ccc(C(=O)O)cc1` [EXAMPLE 5, 4-[(1S)-1-({5-chloro-2-[(3-fluorophenoxy)methyl]benzoyl}amino)ethyl]benzoic Acid], the IC50 came to 0.023 µM.

In turn, `C[C@H](NC(=O)c1cc(Cl)ccc1COc1ccc(F)cc1)c1ccc(C(=O)O)cc1` [EXAMPLE 4, 4-[(1S)-1-({5-chloro-2-[(4-fluorophenoxy)methyl]benzoyl}amino)ethyl]benzoic Acid] returned an IC50 of 0.015 µM.

`C[C@H](NC(=O)c1cc(Cl)cnc1COc1cccc(Cl)c1)c1ccc(C(=O)O)cc1` [EXAMPLE 20, 4-{(1S)-1-[({5-chloro-2-[(3-chlorophenoxy)methyl]pyridin-3-yl}carbonyl)amino]ethyl}benzoic Acid] registered an IC50 of 0.017 µM.

On to `C[C@H](NC(=O)c1cc(Cl)ccc1COc1ccc(F)c(F)c1)c1ccc(C(=O)O)cc1` [EXAMPLE 11, 4-[(1S)-1-({5-chloro-2-[(3,4-difluorophenoxy)methyl]benzoyl}amino)ethyl]benzoic Acid], for which inhibition was half-maximal at 0.016 µM (IC50).
